# Laboratory results: patent US10988478B1, “Pyrazolo[1,5a]pyrimidine derivatives as IRAK4 modulators” (Genentech, Inc., priority 2015, dated 2021)
# pKi: −log10 of the molar value.
# Target: human IRAK4 (Homo sapiens (Human), UniProt Q9NWZ3)
# Assay: IRAK4 kinase inhibition, Transcreener fluorescence polarization ADP assay
# Format: biochemical
# Conditions: recombinant full-length His6-IRAK4; 125 uM ATP; 90 min; Ki computed using ATP Km 642 uM
# Procedure: Compounds were assayed for inhibition of human IRAK4 and IRAK1 catalytic activity using recombinant enzyme produced from insect cells. Full-length IRAK4 protein, carrying an N-terminal His6-Tag, was obtained from Life Technologies (Carlsbad, Calif., USA). The IRAK1 construct was produced internally and was comprised of IRAK1 residues Arg194 to Ser712, preceded by an NH2-terminal His6 tag and the coding sequence for glutathione-S-transferase.
# Sequence of human IRAK4 (Q9NWZ3 whole entry): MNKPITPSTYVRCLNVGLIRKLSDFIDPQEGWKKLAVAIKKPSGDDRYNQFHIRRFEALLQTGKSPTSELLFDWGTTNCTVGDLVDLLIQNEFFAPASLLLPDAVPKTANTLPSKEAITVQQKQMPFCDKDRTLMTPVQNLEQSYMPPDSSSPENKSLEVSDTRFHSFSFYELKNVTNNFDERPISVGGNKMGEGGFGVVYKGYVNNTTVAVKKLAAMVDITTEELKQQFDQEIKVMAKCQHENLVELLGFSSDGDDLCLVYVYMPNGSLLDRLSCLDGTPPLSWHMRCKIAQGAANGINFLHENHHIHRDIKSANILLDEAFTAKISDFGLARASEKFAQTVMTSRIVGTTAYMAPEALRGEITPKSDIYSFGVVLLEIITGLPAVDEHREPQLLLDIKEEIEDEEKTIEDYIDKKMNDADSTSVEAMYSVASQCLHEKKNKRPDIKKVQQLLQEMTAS
row,Compound,pKi
1,"C[C@@]1(CO)Cc2cc(NC(=O)c3cnn4cc(Cl)cnc34)c(N3CCC(CO)CC3)cc2O1 [Example 164, (S)-6-Chloro-N-(2-(hydroxymethyl)-6-(4-(hydroxymethyl)piperidin-1-yl)-2-methyl-2,3-dihydrobenzofuran-5-yl)pyrazolo[1,5-a]pyrimidine-3-carboxamide]",8.55
2,"C[C@@]1(CO)Cc2cc(NC(=O)c3cnn4cc(Cl)cnc34)c(N3CCOCC3)cc2O1 [Example 165, (S)-6-Chloro-N-(2-(hydroxymethyl)-2-methyl-6-morpholino-2,3-dihydrobenzofuran-5-yl)pyrazolo[1,5-a]pyrimidine-3-carboxamide]",8.25
3,"CC1(C)Cc2cc(NC(=O)c3cnn4cc(Cl)cnc34)c(N3CCC4(CCOC4)CC3)cc2O1 [Example 167, 6-Chloro-N-(2,2-dimethyl-6-(2-oxa-8-azaspiro[4.5]decan-8-yl)-2,3-dihydrobenzofuran-5-yl)pyrazolo[1,5-a]pyrimidine-3-carboxamide]",8.55
4,CC1(CO)Cc2cc(NC(=O)c3cnn4cc(Cl)cnc34)c(N3CCN(CC(F)F)CC3)cc2O1 (centres unmarked) [Example 168],8.44
5,"C[C@]1(CO)Cc2cc(NC(=O)c3cnn4cc(Cl)cnc34)c(N3CCN(CC(F)F)CC3)cc2O1 [Example 170, (R)-6-Chloro-N-(6-(4-(2,2-difluoroethyl)piperazin-1-yl)-2-(hydroxymethyl)-2-methyl-2,3-dihydrobenzofuran-5-yl)pyrazolo[1,5-a]pyrimidine-3-carboxamide]",8.52
6,"C[C@]1(CO)Cc2cc(NC(=O)c3cnn4cccnc34)c(OC(F)(F)F)cc2O1 [Example 171, (R)—N-(2-(Hydroxymethyl)-2-methyl-6-(trifluoromethoxy)-2,3-dihydrobenzofuran-5-yl)pyrazolo[1,5-a]pyrimidine-3-carboxamide]",7.42
7,"C[C@@]1(CO)Cc2cc(NC(=O)c3cnn4cccnc34)c(OC(F)(F)F)cc2O1 [Example 172, (S)—N-(2-(hydroxymethyl)-2-methyl-6-(trifluoromethoxy)-2,3-dihydrobenzofuran-5-yl)pyrazolo[1,5-a]pyrimidine-3-carboxamide]",7.80
8,"O=C(Nc1cc2c(cc1N1CCOCC1)C(=O)N(CC(F)(F)F)C2)c1cnn2cccnc12 [Example 173, N-[6-Morpholino-1-oxo-2-(2,2,2-trifluoroethyl)isoindolin-5-yl]pyrazolo[1,5-a]pyrimidine-3-carboxamide]",7.54
9,"O=C(Nc1cc2c(cc1N1CCOCC1)C(=O)N(CC(F)F)C2)c1cnn2cccnc12 [Example 174, N-[2-(2,2-difluoroethyl)-6-morpholino-1-oxo-isoindolin-5-yl]pyrazolo[1,5-a]pyrimidine-3-carboxamide]",7.70
10,"CC(C)(O)CCN1Cc2cc(NC(=O)c3cnn4cccnc34)c(N3CCOCC3)cc2C1=O [Example 175, N-[2-(3-hydroxy-3-methyl-butyl)-6-morpholino-1-oxo-isoindolin-5-yl]pyrazolo[1,5-a]pyrimidine-3-carboxamide]",8.66
11,"CC(C)(O)CN1Cc2cc(NC(=O)c3cnn4cccnc34)c(N3CCOCC3)cc2C1=O [Example 176, N-[2-(2-hydroxy-2-methyl-propyl)-6-morpholino-1-oxo-isoindolin-5-yl]pyrazolo[1,5-a]pyrimidine-3-carboxamide]",7.29
12,"NC(=O)CN1CCN(c2cc3c(cc2NC(=O)c2cnn4cccnc24)CN(C2CCOCC2)C3=O)CC1 [Example 177, N-[6-[4-(2-amino-2-oxo-ethyl)piperazin-1-yl]-1-oxo-2-tetrahydropyran-4-yl-isoindolin-5-yl]pyrazolo[1,5-a]pyrimidine-3-carboxamide]",8.70
13,"COCCN1Cc2cc(NC(=O)c3cnn4cccnc34)c(N3CCOCC3)cc2C1=O [Example 178, N-[2-(2-methoxyethyl)-6-morpholino-1-oxo-isoindolin-5-yl]pyrazolo[1,5-a]pyrimidine-3-carboxamide]",7.82
14,"O=C(Nc1cc2c(cc1N1CCOCC1)C(=O)N(CCO)C2)c1cnn2cccnc12 [Example 179, N-[2-(2-hydroxyethyl)-6-morpholino-1-oxo-isoindolin-5-yl]pyrazolo[1,5-a]pyrimidine-3-carboxamide]",7.51
15,"CN1CCC(N2Cc3cc(NC(=O)c4cnn5cccnc45)c(N4CCOCC4)cc3C2=O)CC1 [Example 180, N-[2-(1-methyl-4-piperidyl)-6-morpholino-1-oxo-isoindolin-5-yl]pyrazolo[1,5-a]pyrimidine-3-carboxamide]",8.42

# Results, then the compound that gave them:
row,pKi,Compound
1,8.70,"O=C(Nc1cc2c(cc1N1CCOCC1)C(=O)N([C@H]1CC[C@H](O)CC1)C2)c1cnn2cccnc12 [Example 181, N-[2-(4-hydroxycyclohexyl)-6-morpholino-1-oxo-isoindolin-5-yl]pyrazolo[1,5-a]pyrimidine-3-carboxamide]"
2,7.25,"CNC(=O)[C@H]1[C@@H]2CN(c3cc4c(cc3NC(=O)c3cnn5cccnc35)CC(C)(C)O4)C[C@@H]21 [Example 182, N-[2,2-dimethyl-6-[(1S,5R)-6-(methylcarbamoyl)-3-azabicyclo[3.1.0]hexan-3-yl]-3H-benzofuran-5-yl]pyrazolo[1,5-a]pyrimidine-3-carboxamide]"
3,8.29,"CNC(=O)CC1CCN(c2cc3c(cc2NC(=O)c2cnn4cccnc24)CC(C)(C)O3)CC1 [Example 183, N-[2,2-dimethyl-6-[4-[2-(methylamino)-2-oxo-ethyl]-1-piperidyl]-3H-benzofuran-5-yl]pyrazolo[1,5-a]pyrimidine-3-carboxamide]"
4,8.51,"CC1(C)Cc2cc(NC(=O)c3cnn4cccnc34)c(N3CCC(C)(C(N)=O)CC3)cc2O1 [Example 184, N-[6-(4-carbamoyl-4-methyl-1-piperidyl)-2,2-dimethyl-3H-benzofuran-5-yl]pyrazolo[1,5-a]pyrimidine-3-carboxamide]"
5,8.24,"CC1(C)Cc2cc(NC(=O)c3cnn4cccnc34)c(N3CCCC(O)CC3)cc2O1 (centres unmarked) [Example 185, N-[6-(4-hydroxyazepan-1-yl)-2,2-dimethyl-3H-benzofuran-5-yl]pyrazolo[1,5-a]pyrimidine-3-carboxamide]"
6,7.82,"CC1(C)Cc2cc(NC(=O)c3cnn4cccnc34)c(N3C[C@@H]4[C@H](C3)[C@H]4C(N)=O)cc2O1 [Example 186, N-[6-[(1S,5R)-6-carbamoyl-3-azabicyclo[3.1.0]hexan-3-yl]-2,2-dimethyl-3H-benzofuran-5-yl]pyrazolo[1,5-a]pyrimidine-3-carboxamide]"
7,8.70,"CC1(C)Cc2cc(NC(=O)c3cnn4cccnc34)c(N3CCN(CC(N)=O)CC3)cc2O1 [Example 187, N-[6-[4-(2-amino-2-oxo-ethyl)piperazin-1-yl]-2,2-dimethyl-3H-benzofuran-5-yl]pyrazolo[1,5-a]pyrimidine-3-carboxamide]"
8,7.08,"Cn1cncc1C1CCN(c2cc3c(cc2NC(=O)c2cnn4cccnc24)CC(C)(C)O3)C1 (centres unmarked) [Example 188, N-[2,2-dimethyl-6-[3-(3-methylimidazol-4-yl)pyrrolidin-1-yl]-3H-benzofuran-5-yl]pyrazolo[1,5-a]pyrimidine-3-carboxamide]"
9,8.26,"CC1(C)Cc2cc(NC(=O)c3cnn4cccnc34)c(N3Cc4cccnc4C3)cc2O1 [Example 189, N-[6-(5,7-dihydropyrrolo[3,4-b]pyridin-6-yl)-2,2-dimethyl-3H-benzofuran-5-yl]pyrazolo[1,5-a]pyrimidine-3-carboxamide]"
10,6.20,"CC1(C)Cc2cc(NC(=O)c3cnn4cccnc34)c(N3CCCC(c4ccn[nH]4)C3)cc2O1 (centres unmarked) [Example 190, N-[2,2-dimethyl-6-[3-(1H-pyrazol-5-yl)-1-piperidyl]-3H-benzofuran-5-yl]pyrazolo[1,5-a]pyrimidine-3-carboxamide]"
11,7.57,"CC1(C)Cc2cc(NC(=O)c3cnn4cccnc34)c(N3CC4COCC4C3)cc2O1 (centres unmarked) [Example 191, N-[6-(1,3,3a,4,6,6a-hexahydrofuro[3,4-c]pyrrol-5-yl)-2,2-dimethyl-3H-benzofuran-5-yl]pyrazolo[1,5-a]pyrimidine-3-carboxamide]"
12,7.36,"CC1(C)Cc2cc(NC(=O)c3cnn4cccnc34)c(N3CCC(c4cc[nH]n4)C3)cc2O1 (centres unmarked) [Example 192, N-[2,2-dimethyl-6-[3-(1H-pyrazol-3-yl)pyrrolidin-1-yl]-3H-benzofuran-5-yl]pyrazolo[1,5-a]pyrimidine-3-carboxamide]"
13,7.00,"CC1(C)Cc2cc(NC(=O)c3cnn4cccnc34)c(N3CC4CC3CC4(F)F)cc2O1 (centres unmarked) [Example 193, N-[6-(5,5-difluoro-2-azabicyclo[2.2.1]heptan-2-yl)-2,2-dimethyl-3H-benzofuran-5-yl]pyrazolo[1,5-a]pyrimidine-3-carboxamide]"
14,6.39,"CC1(C)Cc2cc(NC(=O)c3cnn4cccnc34)c(N3CC4(CCCOC4)C3)cc2O1 [Example 194, N-[2,2-dimethyl-6-(6-oxa-2-azaspiro[3.5]nonan-2-yl)-3H-benzofuran-5-yl]pyrazolo[1,5-a]pyrimidine-3-carboxamide]"
15,7.70,"CC1(C)Cc2cc(NC(=O)c3cnn4cccnc34)c(N3CCC(C(F)(F)F)C3)cc2O1 (centres unmarked) [Example 195, N-[2,2-dimethyl-6-[3-(trifluoromethyl)pyrrolidin-1-yl]-3H-benzofuran-5-yl]pyrazolo[1,5-a]pyrimidine-3-carboxamide]"
16,7.89,"CC1(C)Cc2cc(NC(=O)c3cnn4cccnc34)c(N3CCCC(F)(F)C3)cc2O1 [Example 196, N-(6-(3,3-difluoropiperidin-1-yl)-2,2-dimethyl-2,3-dihydrobenzofuran-5-yl)pyrazolo[1,5-a]pyrimidine-3-carboxamide]"
17,7.48,"CC1(C)Cc2cc(NC(=O)c3cnn4cccnc34)c(N3C[C@@H]4CC(F)(F)C[C@@H]4C3)cc2O1 [Example 197, N-(6-((3aR,6aS)-5,5-difluorohexahydrocyclopenta[c]pyrrol-2(1H)-yl)-2,2-dimethyl-2,3-dihydrobenzofuran-5-yl)pyrazolo[1,5-a]pyrimidine-3-carboxamide]"
